These results are taken from article PMC12516379, “Rotamer-Controlled Self-Immolative Linkers Enable Tunable Release of Neurosteroid Oxime Prodrugs” (ACS Medicinal Chemistry Letters, 2025).

Molecules are shown by their SMILES.

A short description of the data set: Aqueous solubility by visual inspection in acetate buffer (pH 5). The note with it: sodium acetate buffer, pH 5, aqueous buffer, thermodynamic from solid.

Description: For the solubility assessment, acetate buffer (pH 5) was selected as the media of choice to ensure prodrug stability during analysis.
High aqueous solubility was determined by visual inspection of 5 mg solid material in 0.5 mL
sodium acetate buffer solution. This media was selected to ensure stability of prodrugs during
dissolution in 50 mg/mL aqueous media.

For orientation: solubility means the concentration that dissolves in the medium under given conditions. `CNCCN(C)C(=O)O/N=C(\C)[C@H]1CC[C@H]2[C@@H]3CCC4=CC(=O)CC[C@]4(C)[C@H]3CC[C@]12C` [20a] yielded a solubility above 10000 µg/mL.
